Measured values as given in ChEMBL document CHEMBL5214998, “Development of Macrocyclic PRMT5-Adaptor Protein Interaction Inhibitors” (J Med Chem, 2022).
Numbered stars: 1 amine (or outer) side, 2 acyl side, 3 side chain; on linkers, the order of the positions; unused ones are H or OH. Bridge positions count the residues as written; N and C are the ends. Square brackets hold non-standard residues; d marks the D form. Peptide text beside a SMILES is read from it. * marks the point of attachment. FITC = O=C1OC2(c3ccc(O)cc3Oc3cc(O)ccc32)c2ccc(NC(=S)*)cc21; Phe(4-NO2) = N[C@@H](Cc1ccc([N+](=O)[O-])cc1)C(=O)O; Phe(3,4-F2) = N[C@@H](Cc1ccc(F)c(F)c1)C(=O)O; Bip = N[C@@H](Cc1ccc(-c2ccccc2)cc1)C(=O)O; Phe(4-Br) = N[C@@H](Cc1ccc(Br)cc1)C(=O)O; Phe(4-Cl) = N[C@@H](Cc1ccc(Cl)cc1)C(=O)O; Hag = O=C([C@H](CCC=[*:3])N[*:1])[*:2]; Phe(3-F) = N[C@@H](Cc1cccc(F)c1)C(=O)O; Phe(4-F) = N[C@@H](Cc1ccc(F)cc1)C(=O)O; Phe(4-I) = N[C@@H](Cc1ccc(I)cc1)C(=O)O; Gla = N[C@@H](CC(C(=O)O)C(=O)O)C(=O)O; AllylGly = C=CC[C@H](N)C(=O)O

What was measured:
PRMT5/MEP50 complex [1] = biological target: PRMT5/MEP50 complex (Homo sapiens, UniProt O14744); test: (§1) Binding affinity to PRMT5/MEP50 (unknown origin) assessed as dissociation constant by FITC- Competitive binding assay; type: protein-complex assay
PRMT5/MEP50 complex [2] = biological target: PRMT5/MEP50 complex (Homo sapiens, UniProt O14744+Q9BQA1); test: as §1; type: protein-complex assay
Chain of PRMT5/MEP50 complex (Homo sapiens, UniProt O14744+Q9BQA1) (O14744 whole entry): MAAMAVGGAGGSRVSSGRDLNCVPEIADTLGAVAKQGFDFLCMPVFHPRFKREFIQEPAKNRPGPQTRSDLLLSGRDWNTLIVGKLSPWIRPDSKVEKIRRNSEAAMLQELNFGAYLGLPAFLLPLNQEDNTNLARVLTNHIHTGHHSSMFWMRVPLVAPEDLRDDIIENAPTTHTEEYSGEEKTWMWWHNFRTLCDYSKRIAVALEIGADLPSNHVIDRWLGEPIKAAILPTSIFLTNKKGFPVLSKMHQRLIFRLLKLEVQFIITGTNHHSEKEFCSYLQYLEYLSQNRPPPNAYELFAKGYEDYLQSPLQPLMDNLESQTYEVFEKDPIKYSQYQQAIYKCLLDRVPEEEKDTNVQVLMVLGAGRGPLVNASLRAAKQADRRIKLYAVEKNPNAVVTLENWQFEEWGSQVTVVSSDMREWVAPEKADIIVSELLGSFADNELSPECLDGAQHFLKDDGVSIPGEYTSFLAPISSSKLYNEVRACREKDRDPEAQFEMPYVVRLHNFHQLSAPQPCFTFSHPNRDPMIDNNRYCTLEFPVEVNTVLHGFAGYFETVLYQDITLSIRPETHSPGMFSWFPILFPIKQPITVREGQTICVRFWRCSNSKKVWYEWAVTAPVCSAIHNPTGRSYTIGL
Chain of PRMT5/MEP50 complex (Homo sapiens, UniProt O14744+Q9BQA1) (Q9BQA1 whole entry): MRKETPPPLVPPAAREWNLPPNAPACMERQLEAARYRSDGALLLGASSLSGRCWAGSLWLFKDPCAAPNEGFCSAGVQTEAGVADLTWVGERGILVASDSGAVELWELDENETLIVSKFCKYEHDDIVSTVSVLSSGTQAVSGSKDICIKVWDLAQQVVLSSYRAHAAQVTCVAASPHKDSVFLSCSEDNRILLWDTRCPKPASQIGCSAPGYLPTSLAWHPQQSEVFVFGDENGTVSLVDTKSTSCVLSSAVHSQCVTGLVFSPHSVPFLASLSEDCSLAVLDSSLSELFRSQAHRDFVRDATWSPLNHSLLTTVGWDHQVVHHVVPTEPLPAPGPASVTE

Chain of PRMT5/MEP50 complex (Homo sapiens, UniProt O14744) (O14744 whole entry): as the sequence (O14744 whole entry) above
Chain of PRMT5/MEP50 complex (Homo sapiens, UniProt O14744) (Q9BQA1 whole entry, further chain): as the sequence (Q9BQA1 whole entry) above

Kd (PRMT5/MEP50 complex [1]) [nM]	SMILES	Kd (PRMT5/MEP50 complex [2]) [nM]
412	CC(=O)N[C@H](C(=O)N1CCC[C@H]1C(=O)NCC(=O)N[C@@H](CCC(N)=O)C(=O)N[C@@H](Cc1ccc(F)c(F)c1)C(=O)N[C@@H](CC(=O)O)C(=O)N[C@@H](CC(=O)O)C(=O)N[C@@H](C)C(=O)N[C@@H](CC(=O)O)C(=O)N[C@@H](CCCCNC(=S)Nc1ccc2c(c1)C(=O)OC21c2ccc(O)cc2Oc2cc(O)ccc21)C(N)=O)C(C)C (Ac-VPGQ[Phe(3,4-F2)]DDADK(FITC)-NH2)	–
447	CC(=O)N[C@H](C(=O)N1CCC[C@H]1C(=O)NCC(=O)N[C@@H](CCC(N)=O)C(=O)N[C@@H](Cc1ccc(-c2ccccc2)cc1)C(=O)N[C@@H](CC(=O)O)C(=O)N[C@@H](CC(=O)O)C(=O)N[C@@H](C)C(=O)N[C@@H](CC(=O)O)C(=O)N[C@@H](CCCCNC(=S)Nc1ccc2c(c1)C(=O)OC21c2ccc(O)cc2Oc2cc(O)ccc21)C(N)=O)C(C)C (Ac-VPGQ[Bip]DDADK(FITC)-NH2)	–
654	CC(=O)N[C@H](C(=O)N1CCC[C@H]1C(=O)NCC(=O)N[C@@H](CCC(N)=O)C(=O)N[C@@H](Cc1cccc(F)c1)C(=O)N[C@@H](CC(=O)O)C(=O)N[C@@H](CC(=O)O)C(=O)N[C@@H](C)C(=O)N[C@@H](CC(=O)O)C(=O)N[C@@H](CCCCNC(=S)Nc1ccc2c(c1)C(=O)OC21c2ccc(O)cc2Oc2cc(O)ccc21)C(N)=O)C(C)C (Ac-VPGQ[Phe(3-F)]DDADK(FITC)-NH2)	–
250	CC(=O)N[C@H](C(=O)N1CCC[C@H]1C(=O)NCC(=O)N[C@@H](CCC(N)=O)C(=O)N[C@@H](Cc1ccc(Cl)cc1)C(=O)N[C@@H](CC(=O)O)C(=O)N[C@@H](CC(=O)O)C(=O)N[C@@H](C)C(=O)N[C@@H](CC(=O)O)C(=O)N[C@@H](CCCCNC(=S)Nc1ccc2c(c1)C(=O)OC21c2ccc(O)cc2Oc2cc(O)ccc21)C(N)=O)C(C)C (Ac-VPGQ[Phe(4-Cl)]DDADK(FITC)-NH2)	–
245	CC(=O)N[C@H](C(=O)N1CCC[C@H]1C(=O)NCC(=O)N[C@@H](CCC(N)=O)C(=O)N[C@@H](Cc1ccccc1)C(=O)N[C@@H](CC(=O)O)C(=O)N[C@@H](CC(=O)O)C(=O)N[C@@H](C)C(=O)N[C@@H](CC(C(=O)O)C(=O)O)C(=O)N[C@@H](CCCCNC(=S)Nc1ccc2c(c1)C(=O)OC21c2ccc(O)cc2Oc2cc(O)ccc21)C(N)=O)C(C)C (Ac-VPGQFDDA[Gla]K(FITC)-NH2)	–
78	CC(=O)N[C@H](C(=O)N1CCC[C@H]1C(=O)NCC(=O)N[C@@H](CCC(N)=O)C(=O)N[C@@H](Cc1ccc([N+](=O)[O-])cc1)C(=O)N[C@@H](CC(=O)O)C(=O)N[C@@H](CC(=O)O)C(=O)N[C@@H](C)C(=O)N[C@@H](CC(C(=O)O)C(=O)O)C(=O)N[C@@H](CCCCNC(=S)Nc1ccc2c(c1)C(=O)OC21c2ccc(O)cc2Oc2cc(O)ccc21)C(N)=O)C(C)C (Ac-VPGQ[Phe(4-NO2)]DDA[Gla]K(FITC)-NH2)	–
232	CC(=O)N[C@H](C(=O)N1CCC[C@H]1C(=O)NCC(=O)N[C@@H](CCC(N)=O)C(=O)N[C@@H](Cc1ccc([N+](=O)[O-])cc1)C(=O)N[C@@H](CC(=O)O)C(=O)N[C@@H](CC(=O)O)C(=O)N[C@@H](C)C(=O)N[C@@H](CC(=O)O)C(=O)N[C@@H](CCCCNC(=S)Nc1ccc2c(c1)C(=O)OC21c2ccc(O)cc2Oc2cc(O)ccc21)C(N)=O)C(C)C (Ac-VPGQ[Phe(4-NO2)]DDADK(FITC)-NH2)	–

Further lines, the compound ahead of its results:

SMILES	Kd (PRMT5/MEP50 complex [1]) [nM]	Kd (PRMT5/MEP50 complex [2]) [nM]
CC(C)[C@H](NC(=O)[C@H](CCCNC(=N)N)NC(=O)[C@H](CO)NC(=O)COCCOCCNC(=S)Nc1ccc2c(c1)C(=O)OC21c2ccc(O)cc2Oc2cc(O)ccc21)C(=O)N[C@H](C(=O)N1CCC[C@H]1C(=O)N[C@H]1CCCC[C@@H](C(=O)N[C@@H](CC(=O)O)C(=O)N[C@@H](C)C(=O)N[C@@H](CC(=O)O)C(N)=O)NC(=O)[C@H](Cc2ccccc2)NC(=O)[C@H](CCC(N)=O)NC1=O)C(C)C	1290	–
CC(C)[C@H](NC(=O)[C@H](CCCNC(=N)N)NC(=O)[C@H](CO)NC(=O)COCCOCCNC(=S)Nc1ccc2c(c1)C(=O)OC21c2ccc(O)cc2Oc2cc(O)ccc21)C(=O)N[C@H](C(=O)N1CCC[C@H]1C(=O)N[C@H]1C/C=C/C[C@H](C(=O)N[C@@H](CC(=O)O)C(=O)N[C@@H](C)C(=O)N[C@@H](CC(=O)O)C(N)=O)NC(=O)[C@H](Cc2ccccc2)NC(=O)[C@H](CCC(N)=O)NC1=O)C(C)C (stereo in doubt; form 1)	–	> 2000
CC(C)[C@H](NC(=O)[C@H](CCCNC(=N)N)NC(=O)[C@H](CO)NC(=O)COCCOCCNC(=S)Nc1ccc2c(c1)C(=O)OC21c2ccc(O)cc2Oc2cc(O)ccc21)C(=O)N[C@H](C(=O)N1CCC[C@H]1C(=O)N[C@H]1CNC(=O)CC[C@H](C(=O)N[C@@H](CC(=O)O)C(=O)N[C@@H](C)C(=O)N[C@@H](CC(=O)O)C(N)=O)NC(=O)[C@H](Cc2ccccc2)NC(=O)[C@H](CCC(N)=O)NC1=O)C(C)C	–	> 2000
CC(=O)N[C@H](C(=O)N1CCC[C@H]1C(=O)NCC(=O)N[C@@H](CCC(N)=O)C(=O)N[C@@H](Cc1ccc(Br)cc1)C(=O)N[C@@H](CC(=O)O)C(=O)N[C@@H](CC(=O)O)C(=O)N[C@@H](C)C(=O)N[C@@H](CC(=O)O)C(=O)N[C@@H](CCCCNC(=S)Nc1ccc2c(c1)C(=O)OC21c2ccc(O)cc2Oc2cc(O)ccc21)C(N)=O)C(C)C (Ac-VPGQ[Phe(4-Br)]DDADK(FITC)-NH2)	317	–
CC(=O)N[C@H](C(=O)N1CCC[C@@H]1C(=O)N[C@H]1CCCCC[C@@H](C(=O)N[C@@H](CC(=O)O)C(=O)N[C@@H](C)C(=O)N[C@@H](CC(C(=O)O)C(=O)O)C(=O)N[C@@H](CCCCNC(=S)Nc2ccc3c(c2)C(=O)OC32c3ccc(O)cc3Oc3cc(O)ccc32)C(N)=O)NC(=O)[C@H](Cc2ccc([N+](=O)[O-])cc2)NC(=O)[C@H](CCC(N)=O)NC1=O)C(C)C	–	89
CC(C)[C@H](NC(=O)[C@H](CCCNC(=N)N)NC(=O)[C@H](CO)NC(=O)COCCOCCNC(=S)Nc1ccc2c(c1)C(=O)OC21c2ccc(O)cc2Oc2cc(O)ccc21)C(=O)N[C@H](C(=O)N1CCC[C@H]1C(=O)N[C@H]1CNC(=O)C[C@H](C(=O)N[C@@H](CC(=O)O)C(=O)N[C@@H](C)C(=O)N[C@@H](CC(=O)O)C(N)=O)NC(=O)[C@H](Cc2ccccc2)NC(=O)[C@H](CCC(N)=O)NC1=O)C(C)C	–	> 2000
CC(=O)N[C@H](C(=O)N1CCC[C@H]1C(=O)N[C@H]1CCCCCC[C@H](C(=O)N[C@@H](CC(=O)O)C(=O)N[C@@H](C)C(=O)N[C@@H](CC(=O)O)C(=O)N[C@@H](CCCCNC(=S)Nc2ccc3c(c2)C(=O)OC32c3ccc(O)cc3Oc3cc(O)ccc32)C(N)=O)NC(=O)[C@H](Cc2ccccc2)NC(=O)[C@H](CCC(N)=O)NC1=O)C(C)C	–	> 2000
CC(=O)N[C@H](C(=O)N1CCC[C@H]1C(=O)NCC(=O)N[C@@H](CCC(N)=O)C(=O)N[C@@H](Cc1ccc(I)cc1)C(=O)N[C@@H](CC(=O)O)C(=O)N[C@@H](CC(=O)O)C(=O)N[C@@H](C)C(=O)N[C@@H](CC(=O)O)C(=O)N[C@@H](CCCCNC(=S)Nc1ccc2c(c1)C(=O)OC21c2ccc(O)cc2Oc2cc(O)ccc21)C(N)=O)C(C)C (Ac-VPGQ[Phe(4-I)]DDADK(FITC)-NH2)	279	–
CC(=O)N[C@H](C(=O)N1CCC[C@H]1C(=O)N[C@H]1CC/C=C/CC[C@H](C(=O)N[C@@H](CC(=O)O)C(=O)N[C@@H](C)C(=O)N[C@@H](CC(=O)O)C(=O)N[C@@H](CCCCNC(=S)Nc2ccc3c(c2)C(=O)OC32c3ccc(O)cc3Oc3cc(O)ccc32)C(N)=O)NC(=O)[C@H](Cc2ccccc2)NC(=O)[C@H](CCC(N)=O)NC1=O)C(C)C	–	> 2000
CC(=O)N[C@H](C(=O)N1CCC[C@H]1C(=O)N[C@H]1CCCCC[C@H](C(=O)N[C@@H](CC(=O)O)C(=O)N[C@@H](C)C(=O)N[C@@H](CC(=O)O)C(=O)N[C@@H](CCCCNC(=S)Nc2ccc3c(c2)C(=O)OC32c3ccc(O)cc3Oc3cc(O)ccc32)C(N)=O)NC(=O)[C@H](Cc2ccccc2)NC(=O)[C@H](CCC(N)=O)NC1=O)C(C)C	–	> 2000
CC(C)[C@H](NC(=O)[C@H](CCCNC(=N)N)NC(=O)[C@H](CO)NC(=O)COCCOCCNC(=S)Nc1ccc2c(c1)C(=O)OC21c2ccc(O)cc2Oc2cc(O)ccc21)C(=O)N[C@H](C(=O)N1CCC[C@H]1C(=O)N[C@H]1CCCC[C@H](C(=O)N[C@@H](CC(=O)O)C(=O)N[C@@H](C)C(=O)N[C@@H](CC(=O)O)C(N)=O)NC(=O)[C@H](Cc2ccccc2)NC(=O)[C@H](CCC(N)=O)NC1=O)C(C)C	–	> 2000
CC(=O)N[C@H](C(=O)N1CCC[C@H]1C(=O)NCC(=O)N[C@@H](CCC(N)=O)C(=O)N[C@@H](Cc1ccc(F)cc1)C(=O)N[C@@H](CC(=O)O)C(=O)N[C@@H](CC(=O)O)C(=O)N[C@@H](C)C(=O)N[C@@H](CC(=O)O)C(=O)N[C@@H](CCCCNC(=S)Nc1ccc2c(c1)C(=O)OC21c2ccc(O)cc2Oc2cc(O)ccc21)C(N)=O)C(C)C (Ac-VPGQ[Phe(4-F)]DDADK(FITC)-NH2)	391	–
CC(=O)N[C@H](C(=O)N1CCC[C@H]1C(=O)N[C@H]1CCCCCC[C@@H](C(=O)N[C@@H](CC(=O)O)C(=O)N[C@@H](C)C(=O)N[C@@H](CC(=O)O)C(=O)N[C@@H](CCCCNC(=S)Nc2ccc3c(c2)C(=O)OC32c3ccc(O)cc3Oc3cc(O)ccc32)C(N)=O)NC(=O)[C@H](Cc2ccccc2)NC(=O)[C@H](CCC(N)=O)NC1=O)C(C)C	> 2000	–
CC(=O)N[C@H](C(=O)N1CCC[C@H]1C(=O)N[C@H]1CC/C=C/C[C@@H](C(=O)N[C@@H](CC(=O)O)C(=O)N[C@@H](C)C(=O)N[C@@H](CC(=O)O)C(=O)N[C@@H](CCCCNC(=S)Nc2ccc3c(c2)C(=O)OC32c3ccc(O)cc3Oc3cc(O)ccc32)C(N)=O)NC(=O)[C@H](Cc2ccccc2)NC(=O)[C@H](CCC(N)=O)NC1=O)C(C)C (Ac-VP[Hag]QF[AllylGly]DADK(FITC)-NH2; staple (E) 3-6)	562	–
CC(C)[C@H](NC(=O)[C@H](CCCNC(=N)N)NC(=O)[C@H](CO)NC(=O)COCCOCCNC(=S)Nc1ccc2c(c1)C(=O)OC21c2ccc(O)cc2Oc2cc(O)ccc21)C(=O)N[C@H](C(=O)N1CCC[C@H]1C(=O)N[C@H]1CCNC(=O)C[C@H](C(=O)N[C@@H](CC(=O)O)C(=O)N[C@@H](C)C(=O)N[C@@H](CC(=O)O)C(N)=O)NC(=O)[C@H](Cc2ccccc2)NC(=O)[C@H](CCC(N)=O)NC1=O)C(C)C	–	> 2000
CC(=O)N[C@H](C(=O)N1CCC[C@H]1C(=O)NCC(=O)N[C@@H](CCC(N)=O)C(=O)N[C@@H](Cc1ccc(Cl)cc1)C(=O)N[C@@H](CC(=O)O)C(=O)N[C@@H](CC(=O)O)C(=O)N[C@@H](C)C(=O)N[C@@H](CC(C(=O)O)C(=O)O)C(=O)N[C@@H](CCCCNC(=S)Nc1ccc2c(c1)C(=O)OC21c2ccc(O)cc2Oc2cc(O)ccc21)C(N)=O)C(C)C (Ac-VPGQ[Phe(4-Cl)]DDA[Gla]K(FITC)-NH2)	144	–
